Earlier results, collected in patent US20040204482A1, “Extended release oral dosage form” (priority 2001, published 2004).

Settings: in vivo

For NC(=O)c1ccc(F)c2c1C[C@@H](N(C1CCC1)C1CCC1)CO2.O.O=C(O)C(O)C(O)C(=O)O [(R)-3-N,N-dicyclobutylamino-8-fluoro-3,4-dihydro-2H-1-benzopyran-5-carboxamide hydrogen (2R,3R)-tartrate monohydrate], which “plasma elimination half-life, t1/2” value is on record?
Its value is 1.5 h.
